Laboratory results published in ChEMBL document CHEMBL4842348 (J Med Chem, 2021).
≈ marks a conversion by molar mass, not a printed value. Blank lines part the entries; values can stand above or below the compound they belong to.

Tests used:
[1] = Terminal half life in C57BL/6-transgenic mouse expressing human CETP at 200 mg/kg, po qd treated for 7 days measured for 240 hrs; format: ADME, organism-based; conditions: in vivo, 168 h, time 7 day
[2] = Dose normalized AUC in C57BL/6 mouse at 2 mg/kg, po; format: ADME, organism-based; conditions: in vivo
[3] = Terminal half life in DIO NFR-transgenic mouse liver at 100 mg/kg, po once daily for 14 days; format: ADME, organism-based; conditions: in vivo, time 14 day
[4] = Solubility of the compound in pH 7 phosphate buffer; format: physicochemical
[5] = Terminal half life in DIO NFR-transgenic mouse plasma at 100 mg/kg, po once daily for 14 days; format: ADME, organism-based; conditions: time 14 day, read-out: beta t1/2 (converted)
[6] = Half life in C57BL/6 mouse at 0.6 mg/kg, iv; format: ADME, organism-based; conditions: in vivo
[7] = Terminal half life in DIO NFR-transgenic mouse adipose tissue at 100 mg/kg, po once daily for 14 days; format: ADME, organism-based; conditions: in vivo, time 14 day
[8] = Lipophilicity, logD of the compound at pH 7.3 by HPLC analysis; format: physicochemical; conditions: buffer
[9] = Cmax in C57BL/6 mouse at 1 mg/kg, iv and 2 mg/kg, po; format: ADME, organism-based; set-up: dose 2 mg/kg; conditions: in vivo
[10] = Solubility of the compound in pH 7 phosphate buffer by shake-flask method; format: physicochemical
[11] = Oral bioavailability in C57BL/6 mouse at 2 mg/kg; format: ADME, organism-based; conditions: in vivo
[12] = Total clearance in C57BL/6 mouse in whole blood at 1 mg/kg, iv; format: ADME, organism-based
[13] = Half life in C57BL/6 mouse at 1 mg/kg, iv; format: ADME, organism-based; conditions: in vivo
[14] = Clearance in CD1 mouse at 1 mg/kg, iv and 2 mg/kg, po; format: ADME, organism-based; conditions: in vivo
[15] = Dose normalized AUC in CD1 mouse at 1 mg/kg, iv and 2 mg/kg, po; format: ADME, organism-based; conditions: in vivo
[16] = MRT in CD1 mouse at 1 mg/kg, iv and 2 mg/kg, po; format: ADME, organism-based; conditions: in vivo
[17] = Bioavailability in CD1 mouse at 1 mg/kg, iv and 2 mg/kg, po; format: ADME, organism-based; conditions: in vivo
[18] = Volume of distribution at steady state in CD1 mouse at 1 mg/kg, iv and 2 mg/kg, po; format: ADME, organism-based; conditions: in vivo, read-out: Vdss
[19] = Terminal half life in C57BL/6-transgenic mouse expressing human CETP at 100 mg/kg, po qd treated for 7 days measured for 240 hrs; format: ADME, organism-based; conditions: C57BL/6-transgenic expressing human CETP, in vivo, time 7 day, read-out: beta t1/2 (converted)
[20] = Metabolic stability in liver microsomes (unknown origin); format: ADME, Microsome
[21] = Terminal half life in DIO NFR-transgenic mouse plasma at 30 mg/kg, po once daily for 14 days; format: ADME, organism-based; conditions: time 14 day, read-out: beta t1/2 (converted)
[22] = Terminal half life in DIO NFR-transgenic mouse adipose tissue at 30 mg/kg, po once daily for 14 days; format: ADME, organism-based; conditions: time 14 day, read-out: beta t1/2 (converted)
[23] = Terminal half life in DIO NFR-transgenic mouse liver at 30 mg/kg, po once daily for 14 days; format: ADME, organism-based; conditions: time 14 day, read-out: beta t1/2 (converted)

beta t1/2 [1]: 121 h
AUC/dose [2]: 0.36 µM·kg·h/mg
beta t1/2 [3]: 49 h
solubility [4]: < 1 µM
half-life at […] [5]: 27 h
half-life [6]: 3.6 h
beta t1/2 [7]: 150 h
logD [8]: > 6.9
SMILES: COc1cc(F)c(C(C)C)cc1-c1ccc(C(F)(F)F)cc1CN1C(=O)O[C@H](c2cc(C(F)(F)F)cc(C(F)(F)F)c2)[C@@H]1C [ANACETRAPIB]

Cmax [9]: 160 nM
AUC/dose [2]: 0.29 µM·kg·h/mg
solubility [4]: < 1 µM
solubility thermodynamic [10]: < 2 µM
bioavailability [11]: 17%
clearance [12]: 19 mL/min/kg
half-life [13]: 4.9 h
logD [8]: > 6.9
SMILES: COc1ccc(C(C)C)cc1-c1ccc(C(F)(F)F)cc1CN1C(=O)O[C@H](c2cc(C(F)(F)F)cc(C(F)(F)F)c2)[C@@H]1C

clearance [14]: 33 mL/min/kg
AUC/dose [15]: 0.7 µM·h
MRT [16]: 2.8 h
bioavailability [17]: 140%
Vd [18]: 5.6 L/kg
SMILES: COc1ccc(-c2ccc(C(=O)O)cc2C)cc1-c1cnc(N(C)C)nc1[C@@H]1CC[C@H]2[C@@H](c3cc(C(F)(F)F)cc(C(F)(F)F)c3)OC(=O)N12

Cmax [9]: 390 nM
AUC/dose [2]: 1.8 µM·kg·h/mg
solubility [4]: 43 µM (≈ 30.8 µg/mL)
solubility thermodynamic [10]: 43 µM (≈ 30.8 µg/mL)
bioavailability [11]: 43%
clearance [12]: 5.6 mL/min/kg
half-life [13]: 62 h
logD [8]: 6.2
half-life [19]: 83 h
SMILES: Cc1cc(C(=O)O)ccc1-c1ccc(Cl)c(-c2ccc(C(F)(F)F)cc2CN2C(=O)O[C@H](c3cc(C(F)(F)F)cc(C(F)(F)F)c3)[C@@H]2C)c1

Stabilty [20]: Unstable
logD [8]: 4.8
SMILES: COc1ncc(-c2c(C)cc(C(=O)O)cc2C)cc1-c1ccc(C(F)(F)F)cc1[C@@H]1CC[C@H]2[C@@H](c3cc(F)cc(C(F)(F)F)c3)OC(=O)N12

Cmax [9]: 430 nM
AUC/dose [2]: 0.86 µM·kg·h/mg
solubility [4]: 16 µM (≈ 11.4 µg/mL)
bioavailability [11]: 65%
clearance [12]: 18 mL/min/kg
half-life [13]: 2.5 h
SMILES: COc1ccc(-c2ccc(C(=O)O)cc2C)cc1-c1ccc(C(F)(F)F)cc1CN1C(=O)O[C@H](c2cc(C(F)(F)F)cc(C(F)(F)F)c2)[C@@H]1C

solubility thermodynamic [10]: 29 µM (≈ 20.7 µg/mL)
logD [8]: 5.3
SMILES: COc1ccc(-c2ccc(C(=O)O)cc2C)cc1-c1ccc(C(F)(F)F)nc1CN1C(=O)O[C@H](c2cc(C(F)(F)F)cc(C(F)(F)F)c2)[C@@H]1C

half-life at […] [21]: 7.1 h
half-life at […] [22]: 1.3 h
half-life at […] [23]: 18 h
SMILES: Cc1cc(C)c2c(c1)[C@@H](N(Cc1cc(C(F)(F)F)cc(C(F)(F)F)c1)c1nnn(C)n1)CCCN2C[C@H]1CC[C@H](C(=O)O)CC1 [EVACETRAPIB]

solubility thermodynamic [10]: 9 µM (≈ 6.42 µg/mL)
logD [8]: 5.1
SMILES: COc1ncc(-c2ccc(C(=O)O)cc2C)cc1-c1ccc(C(F)(F)F)nc1CN1C(=O)O[C@H](c2cc(C(F)(F)F)cc(C(F)(F)F)c2)[C@@H]1C

solubility thermodynamic [10]: 20 µM (≈ 14.2 µg/mL)
logD [8]: 4.6
SMILES: COc1ccc(-c2ccc(C(=O)O)cc2C)cc1-c1cnc(C(C)(F)F)nc1CN1C(=O)O[C@H](c2cc(C(F)(F)F)cc(C(F)(F)F)c2)[C@@H]1C

solubility thermodynamic [10]: 5 µM (≈ 3.72 µg/mL)
logD [8]: 5.7
SMILES: COc1ncc(-c2ccc(C(=O)O)cc2C)cc1-c1cc(C(F)(F)F)c(OC)nc1CN1C(=O)O[C@H](c2cc(C(F)(F)F)cc(C(F)(F)F)c2)[C@@H]1C

Stabilty [20]: Unstable
logD [8]: 6.6
SMILES: COc1ccc(-c2ccc(C(=O)O)cc2C)cc1-c1cc(C(C)C)c(N(C)C)nc1[C@@H]1CC[C@H]2[C@@H](c3cc(C(F)(F)F)cc(C(F)(F)F)c3)OC(=O)N12

clearance [14]: 6.6 mL/min/kg
AUC/dose [15]: 3.4 µM·h
MRT [16]: 5.8 h
bioavailability [17]: 60%
Vd [18]: 2.3 L/kg
logD [8]: 5.5
SMILES: COc1cc(F)c(-c2ccc(C(=O)O)cc2C)cc1-c1ccc(C(F)(F)F)cc1[C@@H]1CC[C@H]2[C@@H](c3cc(C(F)(F)F)cc(C(F)(F)F)c3)OC(=O)N12

Stabilty [20]: Unstable
SMILES: COc1cc(F)c(-c2ccc(C(=O)O)cc2C)cc1-c1ccc(C(F)(F)F)cc1[C@@H]1CC[C@H]2[C@@H](c3cc(C)cc(C(F)(F)F)c3)OC(=O)N12
